In patent publication US7371737B2, “2-substituted-6-trifluoromethyl purine derivatives with adenosine-A3 antagonistic activity” (Solvay Pharmaceuticals, B.V., priority 2004, dated 2008):

What was measured:
[1] = molecular target: T1, human adenosine-A1 receptors (Homo sapiens, UniProt P30542); assay: In vitro affinity for human adenosine-A1 receptors (radioligand [3H]DPCPX); assay type: binding; conditions: human recombinant receptors expressed in CHO cells; for Ki: read-out: Adenosine receptor affinity (binding) A1 pKi (converted)
T1 construct: expressed in transfected cells; host or cells: CHO cells
T1 sequence (P30542 1-326): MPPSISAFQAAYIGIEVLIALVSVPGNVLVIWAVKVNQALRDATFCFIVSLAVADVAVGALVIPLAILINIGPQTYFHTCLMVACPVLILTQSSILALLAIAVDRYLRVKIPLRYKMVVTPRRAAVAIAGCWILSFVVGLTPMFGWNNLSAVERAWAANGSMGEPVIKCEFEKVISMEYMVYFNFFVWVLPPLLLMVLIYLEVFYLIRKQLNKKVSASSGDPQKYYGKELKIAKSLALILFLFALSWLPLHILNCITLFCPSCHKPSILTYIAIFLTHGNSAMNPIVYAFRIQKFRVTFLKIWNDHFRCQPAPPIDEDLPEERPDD
Protocol: Affinity of the compounds for human adenosine-A1 receptors was determined using the receptor binding assay described by A. Townsend-Nicholson and P. R. Schofield (Biol. Chem., 269, 2373, 1994), using human recombinant receptors expressed in CHO cells, and [^3H]DPCPX as radioligand.

[2] = molecular target: T2, human Adenosine A3 receptor (Homo sapiens, UniProt P0DMS8); assay: In vitro affinity for human adenosine-A3 receptors (radioligand [125I]-AB-MECA); assay type: binding; design: expressed in transfected cells; host or cells: HEK 293 cells (membrane preparations); conditions: membranes of HEK 293 cells stably expressing human A3, [125I]-AB-MECA, 22° C., 90 minutes; for Ki: read-out: Adenosine receptor affinity (binding) A3 pKi (converted)
T2 sequence (P0DMS8 1-318): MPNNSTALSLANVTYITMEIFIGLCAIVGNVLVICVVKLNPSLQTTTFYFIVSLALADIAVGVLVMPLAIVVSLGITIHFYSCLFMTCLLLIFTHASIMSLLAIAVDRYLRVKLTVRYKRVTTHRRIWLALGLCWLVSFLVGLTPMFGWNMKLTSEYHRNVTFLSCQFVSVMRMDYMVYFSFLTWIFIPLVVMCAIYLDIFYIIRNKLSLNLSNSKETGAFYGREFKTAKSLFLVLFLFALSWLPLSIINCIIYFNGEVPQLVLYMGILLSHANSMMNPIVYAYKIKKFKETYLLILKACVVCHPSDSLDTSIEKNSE
Protocol: Affinity of the compounds for human adenosine-A3 receptors was determined using the receptor binding assay described by C. A. Salvatore et al.: “Molecular cloning and characterization of the human A3 adenosine receptor”, Proc. Natl. Acad. Sci. USA, 90, 10365-10369, 1993. Briefly, membrane preparations were obtained from human recombinant (HEK 293) cells in which the human adenosine-A3 receptor was stably expressed. […] Separation of bound radioactivity from free was done by filtration through Packard GF/B glass fiber filters with several washings with ice-cold buffer using a Packard cell harvester. Bound radioactivity was measured with a scintillation counter (Topcount, Packard) using a liquid scintillation cocktail (Microscint 0, Packard). […] Determination of In Vitro Functional Activity on Human Adenosine A3 Receptors Using an Aequorin-based Assay

[3] = molecular target: T3, human adenosine-A2A receptors (Homo sapiens, UniProt P29274); assay: In vitro affinity for human adenosine-A2A receptors (radioligand [3H]CGS 21680); assay type: binding; conditions: human recombinant receptors expressed in HEK-293 cells; for Ki: read-out: Adenosine receptor affinity (binding) A2A pKi (converted)
T3 construct: expressed in transfected cells; host or cells: HEK-293 cells
Protocol: Affinity of the compounds for human adenosine-A2A receptors was determined using the receptor binding assay described by D. R. Luthin et al., (Mol. Pharmacol., 47, 307, 1995), using human recombinant receptors expressed in HEK-293 cells, and [^3H]CGS 21680 as radioligand.

[4] = molecular target: T2, human Adenosine A3 receptor; assay: In vitro functional activity on human adenosine A3 receptors using an Aequorin-based assay; assay type: cell-based; design: A. et al. (Acc. Number GenBank: L22607); host or cells: CHO-K1 cells stably expressing mitochondrially targeted aequorin and Galpha16; conditions: hA3-Aequorin CHO-K1 cells; for EC50: agonist mode, concentrations up to 10^−5 M, read-out: Functional activity A3 agonism pEC50 (converted); for Kb: antagonist mode, N6-benzyl-NECA as the agonist, read-out: Functional activity A3 antagonism pA2 (converted)
Text: A stable monoclonal hA3-Aequorin cell line was provided by Euroscreen. The coding region encoding the human Adenosine A3 receptor was amplified by polymerase chain reaction (PCR), using human lung cDNA as template. The PCR product was ligated in the expression vector pEFIN3 (Invitrogen), and the complete sequence of the insert was then established. […] A. et al. (Acc. Number GenBank: L22607). The expression plasmid containing the coding sequence of the human Adenosine A3 receptor was transfected in CHO-K1 cells stably expressing mitochondrially targetted Aequorin and Gα16. Resistant clones were selected in the presence of 400 μg/ml G418 and isolated by limiting dilution. […] The hA3-Aequorin cells express mitochondrially targetted apo-Aequorin. Cells have to be loaded with coelenterazine, in order to reconstitute active Aequorin. After binding of agonists to the hA3 receptor, the intracellular calcium concentration increases, which leads to a luminescent response. Binding of calcium to the apo-Aequorin/coelenterazine complex leads to an oxidation reaction of coelenterazine, which results in the production of apo-Aequorin, coelenteramide, CO2 and light (λmax 469 nm). This luminescent response is dependent on the agonist concentration.
Assay-protocol: • Dilute the loaded cells 18× in Dulbecco's medium without PhenolRed (Gibco BRL), pre-heated to 37° C., resulting in a concentration of 2.8*10^5 cells/ml. • Stir for 1 hour at room temperature. • Add 10 μl compound or control per well in white 96-well plates. • Add 90 μl of diluted cells (2.5*10^4 cells/well). • Measure chemoluminescence immediately for 20 seconds. • In antagonist mode 50 μl 10^−6 N6-benzyl-NECA is added as the agonist. • Measure chemoluminescence immediately for 20 seconds using the MicroBetaJet (PerkinElmer).

T3 sequence (P29274 whole entry): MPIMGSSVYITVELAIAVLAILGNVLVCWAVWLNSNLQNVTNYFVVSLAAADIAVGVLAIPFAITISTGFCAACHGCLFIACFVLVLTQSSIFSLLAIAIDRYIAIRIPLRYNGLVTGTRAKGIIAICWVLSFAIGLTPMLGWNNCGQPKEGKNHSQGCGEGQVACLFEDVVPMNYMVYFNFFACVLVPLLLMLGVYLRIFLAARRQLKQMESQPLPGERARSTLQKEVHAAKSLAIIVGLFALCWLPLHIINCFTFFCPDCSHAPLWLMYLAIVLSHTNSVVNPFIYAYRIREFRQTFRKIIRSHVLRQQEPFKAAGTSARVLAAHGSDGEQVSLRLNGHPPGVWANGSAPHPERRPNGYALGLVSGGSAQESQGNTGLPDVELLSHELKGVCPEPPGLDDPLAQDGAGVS

## Cn1cnc2c(C(F)(F)F)nc([N+](=O)[O-])nc21 [Compound 1, 2-nitro-6-trifluoromethyl-9-methyl purine]
[1]
  Ki: > 10 µM
[2]
  Ki: 3.98 µM
[3]
  Ki: > 10 µM

## OC[C@H]1O[C@@H](n2cnc3c(C(F)(F)F)nc(N4CCCCC4)nc32)[C@H](O)[C@@H]1O [Compound 3, 2-piperidinyl-6-trifluoromethyl-9-β-D-ribofuranosyl purine]
[1]
  Adenosine receptor affinity (binding) A1 pKi: <5.0
[2]
  Adenosine receptor affinity (binding) A3 pKi: 5.4
[3]
  Adenosine receptor affinity (binding) A2A pKi: <5.0

## OC[C@H]1O[C@@H](n2cnc3c(C(F)(F)F)nc(N4CCC(O)CC4)nc32)[C@H](O)[C@@H]1O [Compound 4, 2-(4-OH-piperidinyl)-6-trifluoromethyl-9-β-D-ribofuranosyl purine]
[1]
  Ki: > 10 µM
[2]
  Ki: 15.8 µM
[3]
  Ki: > 10 µM
[4]
  EC50: > 10 µM
  Kb: 0.2 µM

## Cn1c(I)nc2c(C(F)(F)F)nc(NCCc3ccccc3)nc21 [Compound 12, 8-iodo-6-trifluoromethyl-9-methyl-2-phenethylamino purine]
[1]
  Ki: > 10 µM
[2]
  Ki: 2.51 µM
[3]
  Ki: > 10 µM
[4]
  EC50: > 10 µM
  Kb: 2 µM

## Cn1c(-c2ccco2)nc2c(C(F)(F)F)nc(NCCc3ccccc3)nc21 [Compound 13, 8-(furan-2-yl)-6-trifluoromethyl-9-methyl-2-phenethylamino purine]
[1]
  Ki: > 10 µM
[2]
  Ki: 1.26 µM
[3]
  Ki: 7.94 µM
[4]
  EC50: > 10 µM
  Kb: 0.158 µM

## Cn1c(-c2cccs2)nc2c(C(F)(F)F)nc(NCCc3ccccc3)nc21 [Compound 14, 8-(thien-2-yl)-6-trifluoromethyl-9-methyl-2-phenethylamino purine]
[1]
  Ki: 6.31 µM
[2]
  Ki: 1.58 µM
[3]
  Ki: > 10 µM
[4]
  EC50: > 10 µM
  Kb: 1.58 µM

## Cn1c(N2CCCC2)nc2c(C(F)(F)F)nc(NCCc3ccccc3)nc21 [Compound 15, 8-N-pyrrolidinyl-6-trifluoromethyl-9-methyl-2-phenethylamino purine]
[1]
  Ki: > 10 µM
[2]
  Ki: 3.16 µM
[3]
  Ki: > 10 µM

## Cn1c(N2CCCCC2)nc2c(C(F)(F)F)nc(NCCc3ccccc3)nc21 [Compound 16, 8-N-piperidinyl-6-trifluoromethyl-9-methyl-2-phenethyl amino purine]
[1]
  Ki: > 10 µM
[2]
  Ki: 3.98 µM
[3]
  Ki: 15.8 µM

## Cn1c(N2CCOCC2)nc2c(C(F)(F)F)nc(NCCc3ccccc3)nc21 [Compound 17, 8-N-morpholinyl-6-trifluoromethyl-9-methyl-2-phenethylamino purine]
[1]
  Ki: > 10 µM
[2]
  Ki: 1.58 µM
[3]
  Ki: > 10 µM

## Cn1c(NC2CCCC2)nc2c(C(F)(F)F)nc(NCCc3ccccc3)nc21 [Compound 18, 8-cyclopentylamino-6-trifluoromethyl-9-methyl-2-phenethylamino purine]
[1]
  Ki: 3.16 µM
[2]
  Ki: 0.631 µM
[3]
  Ki: 1.26 µM

## Cn1c(-c2ccccc2)nc2c(C(F)(F)F)nc(NCCc3ccccc3)nc21 [Compound 19, 8-phenyl-6-trifluoromethyl-9-methyl-2-phenethylamino purine]
[1]
  Ki: > 10 µM
[2]
  Ki: 2 µM
[3]
  Ki: 7.94 µM

## Cn1c(-c2cccc(F)c2)nc2c(C(F)(F)F)nc(NCCc3ccccc3)nc21 [Compound 20, 8-(3-fluorophenyl)-6-trifluoromethyl-9-methyl-2-phenethylamino purine]
[1]
  Ki: 7.94 µM
[2]
  Ki: 1 µM
[3]
  Ki: > 10 µM

## Cn1c(/C=C/c2ccccc2)nc2c(C(F)(F)F)nc(NCCc3ccccc3)nc21 [Compound 21, 8-E-styryl-6-trifluoromethyl-9-methyl-2-phenethylamino purine]
[1]
  Ki: > 10 µM
[2]
  Ki: 3.98 µM
[3]
  Ki: > 10 µM

## Cn1c(/C=C\c2ccccc2)nc2c(C(F)(F)F)nc(NCCc3ccccc3)nc21 [Compound 22, 8-Z-styryl-6-trifluoromethyl-9-methyl-2-phenethylamino purine]
[1]
  Ki: > 10 µM
[2]
  Ki: 2 µM
[3]
  Ki: > 10 µM
[4]
  EC50: > 10 µM
  Kb: 1 µM

## Cn1c(C#Cc2ccccc2)nc2c(C(F)(F)F)nc(NCCc3ccccc3)nc21 [Compound 23, 8-phenylacetylene-6-trifluoromethyl-9-methyl-2-phenethylamino purine]
[1]
  Ki: > 10 µM
[2]
  Ki: 0.501 µM
[3]
  Ki: > 10 µM

## Cn1c(/C=C/c2ccc(C(F)(F)F)cc2)nc2c(C(F)(F)F)nc(NCCc3ccccc3)nc21 [Compound 24, 8-E-(4-trifluoromethylstyryl)-6-trifluoromethyl-9-methyl-2-phenethylamino purine]
[1]
  Ki: > 10 µM
[2]
  Ki: 3.98 µM
[3]
  Ki: > 10 µM

## Cn1c(/C=C\c2ccc(C(F)(F)F)cc2)nc2c(C(F)(F)F)nc(NCCc3ccccc3)nc21 [Compound 25, 8-Z-(4-trifluoromethylstyryl)-6-trifluoromethyl-9-methyl-2-phenethylamino purine]
[1]
  Ki: > 10 µM
[2]
  Ki: 5.01 µM
[3]
  Ki: > 10 µM

## OC[C@H]1O[C@@H](n2cnc3c(C(F)(F)F)nc(NCCc4ccc(O)cc4)nc32)[C@H](O)[C@@H]1O [Compound 27, 2-(4-hydroxy-phenethylamino)-6-trifluoromethyl-9-β-D-ribo-furanosyl purine]
[1]
  Ki: 5.01 µM
[2]
  Ki: 0.01 µM
[3]
  Ki: 3.16 µM

## CC(C)(C)OC(=O)OCn1cnc2c(C(F)(F)F)nc(NCCc3ccccc3)nc21 [Compound 28, 6-trifluoromethyl-2-phenetylamino-9-BocOM-purine]
[1]
  Ki: 2.51 µM
[2]
  Ki: 0.0251 µM
[3]
  Ki: > 10 µM

## OC[C@H]1O[C@@H](n2cnc3c(C(F)(F)F)nc(OCCc4ccccc4)nc32)[C@H](O)[C@@H]1O [Compound 30, 2-phenethyloxy-6-trifluoromethyl-9-β-D-ribofuranosyl purine]
[1]
  Ki: 1.58 µM
[2]
  Ki: 0.158 µM
[3]
  Ki: 3.16 µM
